Data on 2 compounds can be found in publication PMC7954794, “Protein context shapes the specificity of SH3 domain-mediated interactions in vivo” (Nature Communications, 2021).

Assay [1] deals with NCK2. The assay can be described thus: NCK2 phase separation with 1,6-hexanediol (Fig. S7C). It counts as biochemical, mouse. The following applies: 0%, 5%, and 10% 1,6-hexanediol, 60 mM NaCl, n = 3. Here is the method: (§1) Purified NCK2 proteins were diluted in GST buffer to identical concentrations. At 500 mM NaCl present in this buffer, all NCK2 constructs were completely soluble. Phase transition was initiated by dilution in imidazole buffer (10 mM imidazole (Bio Basic) pH 7.0, 1 mM DTT, 1 mM EGTA (Millipore Sigma), 1 mM MgCl2, 2.5% Glycerol (Bioshop Canada), 3% Dextran (Millipore Sigma)) containing various amount of NaCl so that the final concentration of NaCl would correspond to those in Supplementary Fig. 7B. For all the other experiments, the phase transition of NCK2 proteins was assessed at 60 mM NaCl. […] The pellets to supernatant fractions were used to quantify phase transition at 60 mM NaCl (7 replicates) via Coomassie protein quantification. The involvement of weak hydrophobic interactions in NCK2 driven phase transition was assessed using 1,6-Hexanediol (Millipore Sigma) at 60 mM NaCl. Imidazole buffer containing 0%, 1%, 5%, and 10% 1,6-Hexanediol was first prepared and phase transition was initiated and analyzed as described above. Finally, the competition of SH3-2 dependent homotypic NCK2 interaction with an SH3-2 binding peptide was assessed in the presence of 5, 15, 45, 90, 150, or 300 μM PAK1 peptide ([…]) in imidazole buffer with 60 mM NaCl. […]

In assay [2] the test system is NCK2. The assay can be described thus: NCK2 phase separation with PAK1 peptide competition (Fig. S7A). It counts as biochemical, mouse. As to conditions: 5, 15, 45, 90, 150, or 300 μM peptide, 60 mM NaCl; phase contrast microscopy. As for the experimental part:
as §1

As to `OCCCCCCO` [1,6-hexanediol], the “Effect on NCK2 phase separation” value in assay [1] is given as “disrupts all NCK2 SH3-shuffled proteins in a similar manner”.
For DIQDKPPAPPMRNTST [PAK1 peptide], the “Effect on NCK2 phase separation” value in assay [2] was “Phase separation is inhibited”.
